Activity calls are given as the source filed them. The calls are words filed in the database; no cut-off is given here.
Experiments:
PC-9 [1] = assay: Antiproliferative activity against human PC-9 cells assessed as inhibition of cell growth incubated for 48 hrs in presence of erlotinib by MTT assay; assay type: functional, cell-based; conditions: PC-9, 48 h
PC-9 [2] = assay: Antiproliferative activity against human PC-9 cells assessed as inhibition of cell growth incubated for 48 hrs by MTT assay; assay type: functional, cell-based; conditions: PC-9, 48 h
A549 [3] = assay: Antiproliferative activity against human A549 cells assessed as inhibition of cell growth incubated for 48 hrs by MTT assay; assay type: functional, cell-based; conditions: A549, 48 h
NCI-H460 [4] = assay: Antiproliferative activity against human NCI-H460 cells assessed as inhibition of cell growth incubated for 48 hrs in presence of erlotinib by MTT assay; assay type: functional, cell-based; conditions: NCI-H460, 48 h
[5] = Antiproliferative activity against human PC9 Gefitinib-resistant (GR) cell assessed as inhibition of cell growth incubated for 48 hrs by MTT assay; assay type: functional, cell-based; conditions: Gefitinib-resistant PC9, 48 h
A549 [6] = assay: Antiproliferative activity against human A549 cells assessed as inhibition of cell growth incubated for 48 hrs in presence of erlotinib by MTT assay; assay type: functional, cell-based; conditions: A549, 48 h
NCI-H460 [7] = assay: Antiproliferative activity against human NCI-H460 cells assessed as inhibition of cell growth incubated for 48 hrs by MTT assay; assay type: functional, cell-based; conditions: NCI-H460, 48 h
[8] = Antiproliferative activity against human PC9 Gefitinib-resistant (GR) cell assessed as inhibition of cell growth incubated for 48 hrs in presence of erlotinib by MTT assay; assay type: functional, cell-based; conditions: Gefitinib-resistant PC9, 48 h
A549 [9] = assay: Induction of cell cycle arrest in human A549 cells assessed as accumulation of cells at G0/G1 phase at 10 uM incubated for 48 hrs by flow cytometry analysis (reference value: 53.63%); assay type: functional
A549 [10] = assay: Induction of apoptosis in human A549 cells assessed as late apoptotic cells at 10 uM incubated for 48 hrs by annexin V FITC and propidium iodide based flow cytometry (reference value: 0.76 %); assay type: functional
A549 [11] = assay: Induction of apoptosis in human A549 cells assessed as viable cells at 10 uM incubated for 48 hrs by annexin V FITC and propidium iodide based flow cytometry (reference value: 95.6 %); assay type: functional; conditions: read-out: Activity
A549 [12] = assay: Induction of cell cycle arrest in human A549 cells assessed as accumulation of cells at G0/G1 phase at 10 uM incubated for 48 hrs in presence of erlotinib by flow cytometry analysis (reference value: 53.63%); assay type: functional
A549 [13] = assay: Induction of apoptosis in human A549 cells assessed as late apoptotic cells at 10 uM incubated for 48 hrs in presence of erlotinib by annexin V FITC and propidium iodide based flow cytometry (reference value: 0.76 %); assay type: functional
A549 [14] = assay: Induction of apoptosis in human A549 cells assessed as early apoptotic cells at 10 uM incubated for 48 hrs by annexin V FITC and propidium iodide based flow cytometry (reference value: 2.13 %); assay type: functional
A549 [15] = assay: Induction of apoptosis in human A549 cells assessed as early apoptotic cells at 10 uM incubated for 48 hrs in presence of erlotinib by annexin V FITC and propidium iodide based flow cytometry (reference value: 2.13 %); assay type: functional
A549 [16] = assay: Induction of cell cycle arrest in human A549 cells assessed as accumulation of cells at S phase at 10 uM incubated for 48 hrs by flow cytometry analysis (reference value: 46.37%); assay type: functional
A549 [17] = assay: Induction of apoptosis in human A549 cells assessed as viable cells at 10 uM incubated for 48 hrs in presence of erlotinib by annexin V FITC and propidium iodide based flow cytometry (reference value: 95.6 %); assay type: functional; conditions: read-out: Activity
A549 [18] = assay: Induction of apoptosis in human A549 cells assessed as necrotic cells at 10 uM incubated for 48 hrs by annexin V FITC and propidium iodide based flow cytometry (reference value: 1.49 %); assay type: functional
A549 [19] = assay: Induction of apoptosis in human A549 cells assessed as necrotic cells at 10 uM incubated for 48 hrs in presence of erlotinib by annexin V FITC and propidium iodide based flow cytometry (reference value: 1.49 %); assay type: functional
A549 [20] = assay: Induction of cell cycle arrest in human A549 cells assessed as accumulation of cells at S phase at 10 uM incubated for 48 hrs in presence of erlotinib by flow cytometry analysis (reference value: 46.37%); assay type: functional
A549 [21] = assay: Induction of apoptosis in human A549 cells assessed as downregulation of EGFR expression level at 10 uM incubated for 48 hrs by Western blot analysis; assay type: functional, cell-based
A549 [22] = assay: Induction of apoptosis in human A549 cells assessed as upregulation of caspase-3 protein expression at 10 uM incubated for 48 hrs by Western blot analysis; assay type: functional, cell-based
A549 [23] = assay: Induction of apoptosis in human A549 cells assessed as increase in bax protein expression at 10 uM incubated for 48 hrs by Western blot analysis; assay type: functional, cell-based
A549 [24] = assay: Induction of apoptosis in human A549 cells assessed as increase in p53 protein expression at 10 uM incubated for 48 hrs by Western blot analysis; assay type: functional, cell-based
A549 [25] = assay: Induction of apoptosis in human A549 cells assessed as decrease in bcl-2 protein expression at 10 uM incubated for 48 hrs by Western blot analysis; assay type: functional, cell-based
A549 [26] = assay: Induction of apoptosis in human A549 cells assessed as upregulation of caspase-9 protein expression at 10 uM incubated for 48 hrs by Western blot analysis; assay type: functional, cell-based
A549 [27] = assay: cells; conditions: Homo sapiens, A549, 48 h
PC-9 [28] = assay: Antiproliferative activity against human PC-9 cells assessed as inhibition of cell growth incubated for 48 hrs in presence of 10-hydroxyl-evodiamine by MTT assay; assay type: functional, cell-based; conditions: PC-9, 48 h
A549 [29] = assay: Induction of apoptosis in human A549 cells assessed as viable cells at 10 uM incubated for 48 hrs in presence of 10-hydroxyl-evodiamine by annexin V FITC and propidium iodide based flow cytometry (reference value: 95.6 %); assay type: functional; conditions: read-out: Activity
cells = conditions: Homo sapiens, Gefitinib-resistant PC9, 48 h
A549 [30] = assay: cells; conditions: Homo sapiens, A549, 48 h; remark: listed apart in the source
Description: Antiproliferative activity against human A549 cells assessed as inhibition of cell growth incubated for 48 hrs in presence of evodiamine by MTT assay

A549 [31] = assay: Induction of apoptosis in human A549 cells assessed as early apoptotic cells at 10 uM incubated for 48 hrs in presence of 10-hydroxyl-evodiamine by annexin V FITC and propidium iodide based flow cytometry (reference value: 2.13 %); assay type: functional
A549 [32] = assay: Induction of cell cycle arrest in human A549 cells assessed as accumulation of cells at S phase at 10 uM incubated for 48 hrs in presence of 10-hydroxyl-evodiamine by flow cytometry analysis (reference value: 46.37%); assay type: functional
A549 [33] = assay: Induction of apoptosis in human A549 cells assessed as necrotic cells at 10 uM incubated for 48 hrs in presence of 10-hydroxyl-evodiamine by annexin V FITC and propidium iodide based flow cytometry (reference value: 1.49 %); assay type: functional
[34] = Antiproliferative activity against human PC9 Gefitinib-resistant (GR) cell assessed as inhibition of cell growth incubated for 48 hrs in presence of evodiamine by MTT assay; assay type: functional, cell-based; conditions: Gefitinib-resistant PC9, 48 h
A549 [35] = assay: Induction of cell cycle arrest in human A549 cells assessed as accumulation of cells at G0/G1 phase at 10 uM incubated for 48 hrs in presence of 10-hydroxyl-evodiamine by flow cytometry analysis (reference value: 53.63%); assay type: functional
PC-9 [36] = assay: Antiproliferative activity against human PC-9 cells assessed as inhibition of cell growth incubated for 48 hrs in presence of evodiamine by MTT assay; assay type: functional, cell-based; conditions: PC-9, 48 h
A549 [37] = assay: Induction of apoptosis in human A549 cells assessed as late apoptotic cells at 10 uM incubated for 48 hrs in presence of 10-hydroxyl-evodiamine by annexin V FITC and propidium iodide based flow cytometry (reference value: 0.76 %); assay type: functional

IC50 (PC-9 [1]) [µM] | IC50 (PC-9 [2]) [µM] | IC50 (A549 [3]) [µM] | IC50 (NCI-H460 [4]) [µM] | IC50 (A549 [6]) [µM] | IC50 (NCI-H460 [7]) [µM] | Structure (SMILES) | IC50 [5] [µM] | IC50 [8] [µM] | Activity (A549 [9]) [%] | Activity (A549 [10]) [%] | viability at 10 µM (A549 [11]) [%] | Activity (A549 [14]) [%] | Activity (A549 [16]) [%] | Activity (A549 [18]) [%] | other results
2.37 | 10.2 | 24.7 | 13.4 | 9.19 | 17.1 | CN1c2ccccc2C(=O)N2CCc3c([nH]c4ccccc34)[C@H]21 | 11.3 | 4.81 | – | – | – | – | – | – | –
1.72 | 10.7 | 11.1 | 12.8 | 7.74 | 27.8 | CN1c2ccccc2C(=O)N2CCc3c([nH]c4ccc(O)cc34)[C@H]21 | 10 | 3.05 | 78.23 | 1.7 | 70.2 | 27.8 | 21.77 | 0.34 | Activity (A549 [12]): 89.36%; Activity (A549 [13]): 2.12%; Activity (A549 [15]): 34.6%; viability at 10 µM (A549 [17]): 62%; Activity (A549 [19]): 1.26%; Activity (A549 [20]): 10.64%
– | 1.8 | 23.5 | – | – | – | C#Cc1cccc(Nc2ncnc3cc(OCCOC)c(OCCOC)cc23)c1 [ERLOTINIB] | 6.92 | – | 61.87 | 1.21 | 93 | 4.82 | 37.13 | 1 | IC50 (A549 [27]): 7.74 µM; IC50 (PC-9 [28]): 1.72 µM; viability at 10 µM (A549 [29]): 62%; IC50 (cells): 3.05 µM; IC50 (A549 [30]): 9.19 µM; Activity (A549 [31]): 34.6%; Activity (A549 [32]): 10.64%; Activity (A549 [33]): 1.26%; IC50 [34]: 4.81 µM; Activity (A549 [35]): 89.36%; IC50 (PC-9 [36]): 2.37 µM; Activity (A549 [37]): 2.12%

Structure (SMILES) | IC50 (PC-9 [1]) [µM] | IC50 (PC-9 [2]) [µM] | IC50 (A549 [3]) [µM] | IC50 (NCI-H460 [4]) [µM] | IC50 (A549 [6]) [µM] | IC50 (NCI-H460 [7]) [µM] | IC50 [5] [µM] | IC50 [8] [µM] | Activity (A549 [9]) [%] | Activity (A549 [10]) [%] | viability at 10 µM (A549 [11]) [%] | Activity (A549 [14]) [%] | Activity (A549 [16]) [%] | Activity (A549 [18]) [%] | other results
COCCOc1cc2ncnc(Nc3cccc(-c4cn(CCOCCOCCOCCNC(=O)Cn5c(C)c(COC(=O)N(C)CCN(C)C(=O)Oc6ccc7[nH]c8c(c7c6)CCN6C(=O)c7ccccc7N(C)[C@H]86)c6c5C(=O)C=C(OC)C6=O)nn4)c3)c2cc1OCCOC | – | 1.14 | 3.79 | – | – | 10.6 | 4.14 | – | 62.7 | 1.07 | 77.4 | 20.9 | 37.3 | 0.65 | Activity (A549 [21]): Active; Activity (A549 [22]): Active; Activity (A549 [23]): Active; Activity (A549 [24]): Active; Activity (A549 [25]): Active; Activity (A549 [26]): Active

From ChEMBL document CHEMBL5584219 (Bioorg Med Chem Lett, 2024)
